Where two headings read alike, the source gives them in different places.
Tests used:
AsPC-1 cells = assay: TMRE retention by flow cytometry; assay type: cell-based, human; details: AsPC-1, serum-starved, 1 h treatment
[1] = tested on: cancer cells (KPC1242, Panc-1, AsPC-1, HCT-116, MDA-MB-231, OVCAR-4, OVCAR-8); assay: Cell confluence across the battery of cancer cell lines; assay type: cell-based; details: escalating concentrations (0.1 µM-10 µM)
HPNE and HPSC cells = assay type: cell-based, human; details: for sensitivity of normal, non-transformed cells compared to cancer cells: HPNE and HPSC vs cancer cells
[2] = tested on: pancreatic, breast, and colon cancers; details: cited from earlier work
[3] = tested on: AMP-Activated Protein Kinase (AMPK); assay: AMPK Thr172 phosphorylation immunoblot; assay type: cell-based, murine; details: KPC1242, 0.7 μM MMe or 3 μM pCF3-MMe
HPSC cells = assay: TMRE retention by flow cytometry; assay type: cell-based, human; details: serum-starved, 1 h treatment
[4] = Tolerability, single intra-peritoneal injection in non-tumor-bearing mice; assay type: in vivo
[5] = Tolerability, daily injection for 5 consecutive days in non-tumor-bearing mice; assay type: in vivo; details: daily for 5 consecutive days, 25 μg/mouse to 1 mg/mouse
KPC1242 cells [6] = assay: Ki-67 proliferation staining; assay type: cell-based, murine; details: KPC1242, 24-h treatment, MMe 0.7 μM or pCF3-MMe 3 μM
KPC1242 cells [7] = assay: Luminescent ATP detection assay; assay type: cell-based, murine; details: KPC1242, 24 h, 0.7 μM MMe or 3 μM pCF3-MMe
[8] = after administration; cited from earlier work
[9] = assay type: in vivo, mice
Panc-1 cells = assay: Cell confluence growth inhibition; assay type: cell-based, human

| SMILES | TMRE accumulation within mitochondria (AsPC-1 cells) | cell confluency [1] | sensitivity of normal, non-transformed cells compared to cancer cells (HPNE and HPSC cells) | AMPK activation (Thr172 phosphorylation) [3] | TMRE accumulation within mitochondria (HPSC cells) | tolerability of repeated injection [5] | reduction in Ki-67 levels (KPC1242 cells [6]) | Levels of ATP (KPC1242 cells [7]) | reduction in toxicity to normal cells compared to MMe (HPNE and HPSC cells) [fold] | further results |
| --- | --- | --- | --- | --- | --- | --- | --- | --- | --- | --- |
| N=C(N)NC(=N)NCCCCCCCCCC[P+](c1ccccc1)(c1ccccc1)c1ccccc1.[Br-] [MMe, 10-[(carbamimidamidomethanimidoyl)amino]decyl-triphenylphosphonium bromide] | significantly reduced TMRE accumulation | decreased in a concentration-dependent manner | more than a log-unit less sensitive | significant increase in AMPK activation | did not affect TMRE accumulation | succumbed to 4-fold lower doses | 20-30% | significantly reduced |  | fold more efficacious compared to metformin [2]: 100- to 1000 fold; mortality after single injection ([4]; single intra-peritoneal injection of 250 μg or 1 mg): significant and rapid mortality |
| COC1=C(OC)C(=O)C(CCCCCCCCCC[P+](c2ccccc2)(c2ccccc2)c2ccccc2)=C(C)C1=O [MitoQ] |  |  |  |  |  |  |  |  |  | half-life [8]: ~30 min |
| N=C(N)NC(=N)NCCCCCCCCCC[P+](c1cccc(C(F)(F)F)c1)(c1cccc(C(F)(F)F)c1)c1cccc(C(F)(F)F)c1.[Br-] [mCF3-MMe, (10-(3-carbamimidoylguanidino)decyl)tris(3-(trifluoromethyl)phenyl)phosphonium bromide] |  | decreased in a concentration-dependent manner | more than a log-unit less sensitive |  |  |  |  |  | ~10 |  |
| N=C(N)NC(=N)NCCCCCCCCCC[P+](c1ccc(C(F)(F)F)cc1)(c1ccc(C(F)(F)F)cc1)c1ccc(C(F)(F)F)cc1.[Br-] [pCF3-MMe, (10-(3-carbamimidoylguanidino)decyl)tris(4-(trifluoromethyl)phenyl)phosphonium bromide] | significantly reduced TMRE accumulation | decreased in a concentration-dependent manner | more than a log-unit less sensitive | significant increase in AMPK activation | did not affect TMRE accumulation | tolerated a 1 mg dose | 20-30% | significantly reduced | ~10 | toxic effects toward non-transformed HPNE and HPSC-1 cells (HPNE and HPSC cells; compared to parent MMe and mCF3-MMe): least toxic effects; detection in the blood and liver ([9]; 2 h after intra-tumoral injection of 1 mg): undetectable; detection in the blood and liver ([9]; 6 h after injection (not shown)): barely detectable above the signal-to-noise ratio; levels within the tumors ([9]; 24 h after injection, 1 mg/mouse): measurable levels; mice surviving ([4]; single intra-peritoneal injection of 1 mg): 100% |
| COc1ccc([P+](CCCCCCCCCCNC(=N)CC(=N)N)(c2ccc(OC)cc2)c2ccc(OC)cc2)cc1.[Br-] [pMeO-MMe, [10-(2-carbamimidoylethanimidamido)decyl]tris(4-methoxyphenyl)phosphonium bromide] |  |  |  |  |  |  |  |  |  | confluence of human pancreatic cancer cells (Panc-1 cells; Panc-1 (Figure S5), escalating concentrations): concentration-dependent decrease in confluence; efficacy in pancreas cancer cells (Panc-1 cells; in contrast to the fluorinated compound): lower efficacy |

Source: article PMC9768319 (iScience, 2022)
